Measurements reported in patent US11420944B2, “Voltage-dependent t-type calcium channel blocker” (Nippon Chemiphar Co., Ltd., priority 2016, dated 2022).
Where two headings read alike, the source gives them in different places.

Assays:
human Cav3.2 channels [1] = target: T1, human Cav3.2 channels (Homo sapiens, UniProt O95180); assay: Intracellular calcium concentration measurement (Fluo-4 AM) in stable cells expressing human Cav3.2 channels, buffer A / buffer B; type: cell-based
T1 construct: expressed in transfected cells; host or cells: HEK293 cells (ATCC No. CRL-1573), plasmid pcDNA3.1(+)
T1 sequence (O95180 whole entry): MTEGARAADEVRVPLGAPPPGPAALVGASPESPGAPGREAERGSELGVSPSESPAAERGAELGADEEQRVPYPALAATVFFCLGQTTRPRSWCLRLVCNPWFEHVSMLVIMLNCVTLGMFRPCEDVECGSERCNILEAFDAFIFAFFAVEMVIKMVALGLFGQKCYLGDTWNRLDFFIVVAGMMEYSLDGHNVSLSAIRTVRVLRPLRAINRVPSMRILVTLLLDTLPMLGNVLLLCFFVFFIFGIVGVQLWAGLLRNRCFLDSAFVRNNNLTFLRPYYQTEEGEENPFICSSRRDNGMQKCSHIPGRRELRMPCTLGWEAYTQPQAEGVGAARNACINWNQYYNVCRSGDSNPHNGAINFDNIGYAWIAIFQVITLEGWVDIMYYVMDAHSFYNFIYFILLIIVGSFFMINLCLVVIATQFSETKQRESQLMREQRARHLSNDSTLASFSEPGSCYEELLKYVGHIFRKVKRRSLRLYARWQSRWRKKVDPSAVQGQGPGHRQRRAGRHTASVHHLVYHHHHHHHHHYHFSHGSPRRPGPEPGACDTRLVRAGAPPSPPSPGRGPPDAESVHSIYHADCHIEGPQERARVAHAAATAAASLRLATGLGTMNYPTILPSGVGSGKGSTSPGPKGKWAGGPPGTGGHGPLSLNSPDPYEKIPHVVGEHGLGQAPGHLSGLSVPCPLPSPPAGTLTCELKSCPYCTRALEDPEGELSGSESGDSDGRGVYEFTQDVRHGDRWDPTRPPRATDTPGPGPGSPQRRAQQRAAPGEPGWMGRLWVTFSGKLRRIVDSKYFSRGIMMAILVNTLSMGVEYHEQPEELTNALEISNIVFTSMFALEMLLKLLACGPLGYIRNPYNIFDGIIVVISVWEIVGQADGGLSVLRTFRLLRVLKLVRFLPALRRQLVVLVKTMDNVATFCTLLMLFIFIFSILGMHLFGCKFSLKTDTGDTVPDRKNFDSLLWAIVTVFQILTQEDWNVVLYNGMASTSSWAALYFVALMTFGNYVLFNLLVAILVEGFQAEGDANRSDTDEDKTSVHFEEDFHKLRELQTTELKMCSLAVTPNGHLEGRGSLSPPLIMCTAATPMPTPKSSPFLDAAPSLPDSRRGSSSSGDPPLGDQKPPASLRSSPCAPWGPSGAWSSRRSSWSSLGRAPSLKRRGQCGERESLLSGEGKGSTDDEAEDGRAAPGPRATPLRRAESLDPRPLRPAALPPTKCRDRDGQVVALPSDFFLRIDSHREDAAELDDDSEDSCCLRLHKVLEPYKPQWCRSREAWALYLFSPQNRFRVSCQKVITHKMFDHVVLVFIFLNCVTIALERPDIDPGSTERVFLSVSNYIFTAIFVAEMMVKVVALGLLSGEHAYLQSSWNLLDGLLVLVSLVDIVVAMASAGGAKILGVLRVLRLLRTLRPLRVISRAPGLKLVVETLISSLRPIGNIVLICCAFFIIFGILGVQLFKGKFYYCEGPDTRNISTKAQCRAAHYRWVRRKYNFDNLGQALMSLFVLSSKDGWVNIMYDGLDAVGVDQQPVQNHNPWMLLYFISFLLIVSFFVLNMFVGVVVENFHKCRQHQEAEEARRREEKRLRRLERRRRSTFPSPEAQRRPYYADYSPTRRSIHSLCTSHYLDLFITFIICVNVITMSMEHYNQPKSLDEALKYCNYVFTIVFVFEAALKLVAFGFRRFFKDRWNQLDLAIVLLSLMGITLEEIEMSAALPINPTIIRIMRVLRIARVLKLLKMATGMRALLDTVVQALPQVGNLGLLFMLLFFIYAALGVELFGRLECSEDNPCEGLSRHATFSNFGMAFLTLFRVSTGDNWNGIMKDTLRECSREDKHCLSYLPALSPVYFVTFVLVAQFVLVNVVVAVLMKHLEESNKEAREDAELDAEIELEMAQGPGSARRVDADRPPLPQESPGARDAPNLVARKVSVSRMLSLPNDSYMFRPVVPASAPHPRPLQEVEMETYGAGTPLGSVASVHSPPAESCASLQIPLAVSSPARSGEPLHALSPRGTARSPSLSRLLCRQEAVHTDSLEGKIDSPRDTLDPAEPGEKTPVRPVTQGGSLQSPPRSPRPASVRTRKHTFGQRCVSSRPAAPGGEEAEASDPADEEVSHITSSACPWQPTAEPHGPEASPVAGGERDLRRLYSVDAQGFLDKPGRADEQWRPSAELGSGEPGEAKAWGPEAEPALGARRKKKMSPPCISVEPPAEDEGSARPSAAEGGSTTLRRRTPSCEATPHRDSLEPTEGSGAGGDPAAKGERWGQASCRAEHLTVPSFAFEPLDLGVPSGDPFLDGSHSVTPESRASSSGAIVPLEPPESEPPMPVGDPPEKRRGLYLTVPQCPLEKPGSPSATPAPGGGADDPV
Procedure, shortened: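 State-dependent Cav3.2 inhibition compared in two buffers differing in potassium equilibrium potential (−92 vs −110 mV). Stable HEK293 line, Fluo-4 dye; compound 15 min, room temperature, dark, then KCl addition (83.8 or 91.8 mM) triggers calcium influx read 10 s; IC50 from peak increment over baseline.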

CYP3A4 = target: T2, CYP3A4 (Homo sapiens, UniProt P08684); assay: Evaluation of CYP3A4 activity inhibitory action; type: in vitro ADME; conditions: Human CYP3A4BR EasyCYP Bactosomes, 7-Benzyloxy-4-(trifluoromethyl)-coumarin
T2 construct: purchased Cypex, Ltd; host or cells: E. coli membranes (Bactosomes)
T2 sequence (P08684 whole entry): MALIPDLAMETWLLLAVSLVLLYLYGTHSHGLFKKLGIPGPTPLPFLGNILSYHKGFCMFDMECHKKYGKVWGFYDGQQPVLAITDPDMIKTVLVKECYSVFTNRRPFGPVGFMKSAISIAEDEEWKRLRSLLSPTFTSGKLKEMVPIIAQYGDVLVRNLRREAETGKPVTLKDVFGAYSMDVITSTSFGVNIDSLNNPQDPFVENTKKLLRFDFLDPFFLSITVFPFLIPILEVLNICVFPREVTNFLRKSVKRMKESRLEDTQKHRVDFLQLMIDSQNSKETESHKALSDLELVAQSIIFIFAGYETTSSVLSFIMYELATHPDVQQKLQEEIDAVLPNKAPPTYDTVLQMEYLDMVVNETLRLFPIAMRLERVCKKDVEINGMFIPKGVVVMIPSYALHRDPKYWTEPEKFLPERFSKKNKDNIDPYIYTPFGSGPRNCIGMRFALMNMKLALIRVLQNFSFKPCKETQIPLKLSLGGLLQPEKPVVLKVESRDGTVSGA
Procedure: Evaluation of CYP3A4 Activity Inhibitory Action
To a 50 mM potassium phosphate buffer solution (pH 7.4), 5 nM Human CYP3A4BR EasyCYP Bactosomes (Cypex, Ltd.), 50 μM 7-Benzyloxy-4-(trifluoromethyl)-coumarin, cofactor mix (0.0081 mM β-NADP^+, 0.4 mM G-6-P, 0.4 mM MgCl2, and 0.2 U/mL G-6-P DH(Y)), and 0.01% Pluronic F-127 were added, and the mixture was incubated for 45 minutes at 37° C. The reaction was initiated by adding the cofactor mix. After the incubation, 0.5 M Tris base/acetonitrile (20:80) was added thereto as a reaction terminating liquid, and the resulting mixture was stirred. Subsequently, the fluorescence intensity (excitation: 405 nm, emission: 535 nm) was measured. The reaction was carried out in duplicate. The results are presented as the inhibition rate at 10 μM of the test compound.

human Cav3.2 channels [2] = target: T1, human Cav3.2 channels; assay: Electrophysiological evaluation, whole-cell patch-clamp with automatic patch-clamp system; type: cell-based; conditions: 0.3 μM, holding potential −80 mV; read-out: Cav3.2 channel current inhibition ratio at 0.3 μM of test compound (holding potential −80 mV)
Procedure: Electrophysiological Evaluation
Stable cell line expressing human Cav3.2 channels, which had been produced by Test method (1) of Example 140, was seeded in a 10-cm dish using DMEM medium containing 10% FBS, and the cells were cultured for 24 hours or longer under the conditions of 37° C. and 5% CO2. The cells were detached using Accutase and were used after being suspended in ice-cold extracellular solution. The Cav3.2 channel current was measured by the Whole-cell patch-clamp method using an automatic patch-clamp system (Port-a-Patch; Nanion Technologies GmbH, EPC-10; HEKA Elektronik GmbH, Patchmaster; HEKA Elektronik GmbH) and buffers described below. Measurement of the Cav3.2 channel current was carried out at room temperature, and the measurement conditions were set as follows: holding potential: −80 mV, depolarization potential: −20 mV, depolarization time: 100 msec, and depolarization frequency: 10 sec. The Cav3.2 channel current was defined as the peak value of the inward current observed when depolarization occurred at −20 mV.
For a test compound, a DMSO solution was diluted 1,000 times with extracellular solution, and thus a solution having an intended concentration was produced. The test compound was applied using an extracellular perfusion system (Nanion Technologies GmbH) until the Cav3.2 channel current was stabilized, and five concentrations at the maximum from the low-concentration side were cumulatively applied. The inhibition ratio of the test compound was calculated from the current value immediately before the application of the test compound and the change rate of the Cav3.2 channel current after the application of the test compound (conditions for a holding potential of −80 mV: test compound concentration of 0.3 μM, conditions for a holding potential of −100 mV: test compound concentration of 3 μM).
Extracellular solution: 135 mM NaCl, 4 mM KCl, 1 mM MgCl2, 5 mM CaCl2, 5 mM D-Glucose, and 10 mM HEPES, pH 7.4
Internal solution for electrode: 10 mM NaCl, 10 mM HEPES, 50 mM CsCl, 60 mM CsF, and 20 mM EGTA, pH 7.2

[3] = Tables 2 to 6, buffer A, equilibrium potential of potassium −92 mV, read-out: Inhibitory action of buffer A (inactivated state)
[4] = Table 1, buffer A, equilibrium potential of potassium −92 mV, read-out: Inhibitory action of buffer A (inactivated state)
[5] = Table 1, buffer B, equilibrium potential of potassium −110 mV, read-out: Inhibitory action of buffer B (resting state or closed state)

Compound | IC50 (human Cav3.2 channels [1]; [3]) | CYP3A4 activity inhibition ratio at 10 μM of test compound (CYP3A4) | IC50 (human Cav3.2 channels [1]; [4]) | IC50 (human Cav3.2 channels [1]; [5]) | inhibition at 0.3 µM (human Cav3.2 channels [2])
C[C@@H](NC(=O)C1CC1c1nccn1C)c1ccc(OCC(F)(F)F)s1 (mixture of isomers) [Example 20, Trans-2-(1-methyl-1H-imidazol-2-yl)-N—((R)-1-(5-(2,2,2-trifluoroethoxy)thiophen-2-yl)ethyl)cyclopropane-1-carboxamide] | 1000 to 10000 nM | 27.4% | – | – | –
CCn1c(C2CC2C(=O)N[C@H](C)c2ccc(OCC(F)(F)F)s2)nc2ccccc21 (single isomer, unassigned) [Example 54] | ≤ 100 nM | −1.1% | – | – | –
CCN(CC)C(=O)c1ccc([C@@H](C)NC(=O)C2CC2c2nc3ccccc3[nH]2)s1 (stereo in doubt) [Example 32, Trans-5-((1R)-1-(2-(1H-benzo[d]imidazol-2-yl)cyclopropane-1-carboxamido)ethyl)-N,N-diethylthiophene-2-carboxamide] | 100 to 1000 nM | 23.3% | – | – | –
C[C@@H](NC(=O)[C@@H]1CCN(c2nc3ccccc3[nH]2)C1)c1ccc(OCC(F)(F)F)s1 [Example 12] | – | 84.4% | 100 to 1000 nM | 1000 to 10000 nM | –
C[C@@H](NC(=O)[C@@H]1CCN(CC(=O)Nc2ccccc2)C1)c1ccc(OCC(F)(F)F)s1.Cl [Example 17] | – | 31.8% | – | – | –
CC(C(=O)Nc1ccccc1)N1CC[C@@H](C(=O)N[C@H](C)c2ccc(OCC(F)(F)F)s2)C1 (stereo partly drawn) [Example 24, (3R)-1-(1-oxo-1-(phenylamino)propan-2-yl)-N—((R)-1-(5-(2,2,2-trifluoroethoxy)thiophen-2-yl)ethyl)pyrrolidine-3-carboxamide] | 100 to 1000 nM | 51.1% | – | – | –
C[C@@H](NC(=O)C1CC1c1nc2ccccc2[nH]1)c1ccc(C(=O)OC(C)(C)C)s1 (stereo partly drawn) [Example 25, Trans-5-((1R)-1-(2-(1H-benzo[d]imidazol-2-yl)cyclopropane-1-carboxamido)ethyl)thiophene-2-carboxylic acid tert-butyl ester] | – | 8.7% | – | – | –
C[C@@H](NC(=O)[C@H]1C[C@@H]1c1nc2ccccc2[nH]1)c1ccc(C(=O)N2CCCC2)s1 [Example 33, Trans-2-(1H-benzo[d]imidazol-2-yl)-N—((R)-1-(5-(pyrrolidine-1-carbonyl)thiophen-2-yl)ethyl)cyclopropane-1-carboxamide] | 100 to 1000 nM | −12.8% | – | – | –
C[C@@H](NC(=O)C1CC1c1ccc2ccccc2n1)c1ccc(OCC(F)(F)F)s1 (stereo partly drawn) [Example 34, Trans-2-(quinolin-2-yl)-N—((R)-1-(5-(2,2,2-trifluoroethoxy)thiophen-2-yl)ethyl)cyclopropane-1-carboxamide] | – | 19.6% | – | – | –
C[C@@H](NC(=O)C1CC1c1nc2cc(Cl)ccc2[nH]1)c1ccc(OCC(F)(F)F)s1 (stereo partly drawn) [Example 53, Trans-2-(5-chloro-1H-benzo[d]imidazol-2-yl)-N—((R)-1-(5-(2,2,2-trifluoroethoxy)thiophen-2-yl)ethyl)cyclopropane-1-carboxamide] | – | 3.0% | – | – | –
CCn1c(C2CC2C(=O)N[C@H](C)c2cnc(OCC(F)(F)F)s2)nc2ccccc21 (stereo partly drawn) [Example 57, Trans-2-(1-ethyl-1H-benzo[d]imidazol-2-yl)-N—((R)-1-(2-(2,2,2-trifluoroethoxy)thiazol-5-yl)ethyl)cyclopropane-1-carboxamide] | – | −1.4% | – | – | –
C[C@@H](NC(=O)[C@H]1C[C@@H]1c1nc2ccccc2[nH]1)c1ccc2cc[nH]c2c1 [Example 58, (1S,2S)—N—((R)-1-(1H-indol-6-yl)ethyl)-2-(1H-benzo[d]imidazol-2-yl)cyclopropane-1-carboxamide] | 100 to 1000 nM | 53.5% | – | – | –
C[C@@H](NC(=O)[C@H]1C[C@@H]1c1nc2ccccc2[nH]1)c1cc2cc(C(F)(F)F)ccc2o1 [Example 109, (1S,2S)-2-(1H-benzo[d]imidazol-2-yl)-N—((R)-1-(5-(trifluoromethyl)benzofuran-2-yl)ethyl)cyclopropane-1-carboxamide] | 100 to 1000 nM | 24.1% | – | – | –
C[C@@H](NC(=O)[C@H]1C[C@@H]1c1nc2ccccc2[nH]1)c1cc2ccc(C(F)(F)F)cc2o1 [Example 123, (1S,2S)-2-(1H-benzo[d]imidazol-2-yl)-N—((R)-1-(6-(trifluoromethyl)benzofuran-2-yl)ethyl)cyclopropane-1-carboxamide] | ≤ 100 nM | 11.7% | – | – | –
CC(C)[C@@H](NC(=O)[C@H]1C[C@@H]1c1nc2ccccc2[nH]1)c1cc2ccc(F)cc2o1 [Example 124, (1S,2S)-2-(1H-benzo[d]imidazol-2-yl)-N—((R)-1-(6-fluorobenzofuran-2-yl)-2-methylpropyl)cyclopropane-1-carboxamide] | ≤ 100 nM | 28.6% | – | – | –
C[C@@H](NC(=O)[C@H]1C[C@@H]1c1nc2cc(F)ccc2[nH]1)c1cc2cc(F)ccc2o1 [Example 125, (1S,2S)-2-(5-fluoro-1H-benzo[d]imidazol-2-yl)-N—((R)-1-(5-fluorobenzofuran-2-yl)ethyl)cyclopropane-1-carboxamide] | ≤ 100 nM | 25.0% | – | – | –
C[C@H](c1cc2ccc(F)cc2o1)N(C)C(=O)[C@H]1C[C@@H]1c1nc2ccccc2[nH]1 [Example 129, (1S,2S)-2-(1H-benzo[d]imidazol-2-yl)-N—((R)-1-(6-fluorobenzofuran-2-yl)ethyl)-N-methylcyclopropane-1-carboxamide] | 100 to 1000 nM | 56.0% | – | – | –
C[C@@H](NC(=O)Cc1ccc(C2CC2)cc1)c1ccc(OCC(F)(F)F)cn1 [TTA-A2, reference compound] | – | 55.7% | – | – | –

Results, then the compound that gave them:

IC50 (human Cav3.2 channels [1]; [3]) | CYP3A4 activity inhibition ratio at 10 μM of test compound (CYP3A4) | IC50 (human Cav3.2 channels [1]; [4]) | IC50 (human Cav3.2 channels [1]; [5]) | inhibition at 0.3 µM (human Cav3.2 channels [2]) | Compound
– | 39.6% | ≤ 100 nM | > 10000 nM | 58% | C[C@@H](NC(=O)C1CC1c1nc2ccccc2n1C)c1ccc(OCC(F)(F)F)s1 (single isomer, unassigned) [Example 4A]
– | 13.0% | 100 to 1000 nM | 100 to 1000 nM | 59% | C[C@@H](NC(=O)C1CC1c1nc2ccccc2[nH]1)c1ccc(C(F)(F)F)s1 (single isomer, unassigned) [Example 5A]
100 to 1000 nM | 16.9% | – | – | – | C[C@@H](NC(=O)C1CC1c1c[nH]c2ccccc12)c1ccc(OCC(F)(F)F)s1 (single isomer, unassigned) [Example 21A]
100 to 1000 nM | 23.3% | – | – | – | C[C@@H](NC(=O)C1CC1c1c[nH]c2ccccc12)c1ccc(OCC(F)(F)F)s1 (single isomer, unassigned) [Example 21B]
100 to 1000 nM | 12.2% | – | – | 81% | C[C@@H](NC(=O)C1CC1c1ccc2cnn(C)c2c1)c1ccc(OCC(F)(F)F)s1 (single isomer, unassigned) [Example 22A]
100 to 1000 nM | 7.0% | – | – | – | C[C@@H](NC(=O)C1CC1c1nc(-c2ccccc2)c[nH]1)c1ccc(OCC(F)(F)F)s1 (single isomer, unassigned) [Example 31A]
